Numbers after ± are expanded uncertainties.
Assay: xn = mol fraction of the nth substance listed
Conditions: 101.3 kPa, Liquid

Cc1ccc(C)cc1 [1,4-dimethylbenzene] + CN1CCCC1=O
Conditions | mass density [kg/m3] | viscosity [mPa·s]
303.15 K, x1 = 0.0947 | 1005.71 ± 2.4 | 1.359 ± 0.045
303.15 K, x1 = 0.1893 | 988.37 ± 2.1 | 1.239 ± 0.039
303.15 K, x1 = 0.2858 | 971.07 ± 1.9 | 1.129 ± 0.034
303.15 K, x1 = 0.3838 | 953.82 ± 1.6 | 1.02 ± 0.03
303.15 K, x1 = 0.483 | 936.56 ± 1.4 | 0.9203 ± 0.026
303.15 K, x1 = 0.5836 | 919.47 ± 1.1 | 0.8327 ± 0.023
303.15 K, x1 = 0.6854 | 902.73 ± 0.96 | 0.7753 ± 0.021
303.15 K, x1 = 0.7888 | 885.85 ± 0.82 | 0.7001 ± 0.019
303.15 K, x1 = 0.8937 | 869.04 ± 0.73 | 0.6291 ± 0.017
303.15 K, x1 = 1 | 852.35 ± 0.72 | 0.5715 ± 0.015
313.15 K, x1 = 0.0947 | 996.79 ± 2.4 | 1.173 ± 0.039
313.15 K, x1 = 0.1893 | 979.45 ± 2.1 | 1.07 ± 0.034
313.15 K, x1 = 0.2858 | 962.14 ± 1.9 | 0.9754 ± 0.03
313.15 K, x1 = 0.3838 | 944.9 ± 1.6 | 0.8894 ± 0.026
313.15 K, x1 = 0.483 | 927.68 ± 1.4 | 0.807 ± 0.023
313.15 K, x1 = 0.5836 | 910.56 ± 1.1 | 0.7296 ± 0.021
313.15 K, x1 = 0.6854 | 893.86 ± 0.97 | 0.6862 ± 0.019
313.15 K, x1 = 0.7888 | 877.02 ± 0.83 | 0.619 ± 0.017
313.15 K, x1 = 0.8937 | 860.27 ± 0.75 | 0.5579 ± 0.015
313.15 K, x1 = 1 | 843.64 ± 0.74 | 0.508 ± 0.014
323.15 K, x1 = 0.0947 | 987.88 ± 2.4 | 1.023 ± 0.034
323.15 K, x1 = 0.1893 | 970.53 ± 2.1 | 0.9373 ± 0.03
323.15 K, x1 = 0.2858 | 953.21 ± 1.8 | 0.8571 ± 0.027
323.15 K, x1 = 0.3838 | 935.97 ± 1.6 | 0.7795 ± 0.024
323.15 K, x1 = 0.483 | 918.77 ± 1.4 | 0.7084 ± 0.021
323.15 K, x1 = 0.5836 | 901.68 ± 1.2 | 0.6521 ± 0.019
323.15 K, x1 = 0.6854 | 884.99 ± 0.98 | 0.6084 ± 0.017
323.15 K, x1 = 0.7888 | 868.16 ± 0.85 | 0.5517 ± 0.015
323.15 K, x1 = 0.8937 | 851.46 ± 0.78 | 0.4998 ± 0.014
323.15 K, x1 = 1 | 834.9 ± 0.77 | 0.4599 ± 0.013
333.15 K, x1 = 0.0947 | 978.93 ± 2.4 | 0.9019 ± 0.031
333.15 K, x1 = 0.1893 | 961.55 ± 2.1 | 0.8316 ± 0.027
333.15 K, x1 = 0.2858 | 944.23 ± 1.8 | 0.7602 ± 0.024
333.15 K, x1 = 0.3838 | 926.99 ± 1.6 | 0.694 ± 0.021
333.15 K, x1 = 0.483 | 909.8 ± 1.4 | 0.6321 ± 0.019
333.15 K, x1 = 0.5836 | 892.71 ± 1.2 | 0.5828 ± 0.017
333.15 K, x1 = 0.6854 | 876.03 ± 0.99 | 0.5437 ± 0.016
333.15 K, x1 = 0.7888 | 859.21 ± 0.87 | 0.4947 ± 0.014
333.15 K, x1 = 0.8937 | 842.56 ± 0.8 | 0.4504 ± 0.013
333.15 K, x1 = 1 | 826.09 ± 0.8 | 0.4298 ± 0.013
343.15 K, x1 = 0.0947 | 969.95 ± 2.3 | 0.8009 ± 0.027
343.15 K, x1 = 0.1893 | 952.56 ± 2.1 | 0.7371 ± 0.024
343.15 K, x1 = 0.2858 | 935.23 ± 1.8 | 0.681 ± 0.022
343.15 K, x1 = 0.3838 | 917.98 ± 1.6 | 0.6209 ± 0.019
343.15 K, x1 = 0.483 | 900.82 ± 1.4 | 0.5686 ± 0.017
343.15 K, x1 = 0.5836 | 883.72 ± 1.2 | 0.5173 ± 0.015
343.15 K, x1 = 0.6854 | 867.04 ± 1 | 0.4921 ± 0.015
343.15 K, x1 = 0.7888 | 850.22 ± 0.89 | 0.4476 ± 0.013
343.15 K, x1 = 0.8937 | 833.61 ± 0.83 | 0.4081 ± 0.013
343.15 K, x1 = 1 | 817.17 ± 0.83 | 0.3783 ± 0.012
353.15 K, x1 = 0.0947 | 960.94 ± 2.3 | 0.7219 ± 0.025
353.15 K, x1 = 0.1893 | 943.54 ± 2.1 | 0.6637 ± 0.022
353.15 K, x1 = 0.2858 | 926.19 ± 1.8 | 0.6119 ± 0.02
353.15 K, x1 = 0.3838 | 908.93 ± 1.6 | 0.561 ± 0.018
353.15 K, x1 = 0.483 | 891.78 ± 1.4 | 0.5127 ± 0.016
353.15 K, x1 = 0.5836 | 874.66 ± 1.2 | 0.4761 ± 0.015
353.15 K, x1 = 0.6854 | 857.97 ± 1 | 0.4466 ± 0.014
353.15 K, x1 = 0.7888 | 841.16 ± 0.91 | 0.4072 ± 0.013
353.15 K, x1 = 0.8937 | 824.56 ± 0.85 | 0.3726 ± 0.012
353.15 K, x1 = 1 | 808.22 ± 0.85 | 0.3382 ± 0.011

Cc1ccc(C)cc1 [1,4-dimethylbenzene] + CCCCCCC
Conditions | mass density [kg/m3] | viscosity [mPa·s]
298.15 K, x1 = 0.0948 | 694.32 ± 1.2 | 0.4074 ± 0.013
298.15 K, x1 = 0.1911 | 709.39 ± 1.2 | 0.4176 ± 0.013
298.15 K, x1 = 0.288 | 725.04 ± 1.1 | 0.4295 ± 0.013
298.15 K, x1 = 0.3865 | 741.5 ± 1.1 | 0.4436 ± 0.013
298.15 K, x1 = 0.4856 | 758.54 ± 1 | 0.4598 ± 0.013
298.15 K, x1 = 0.5861 | 776.51 ± 0.96 | 0.4807 ± 0.014
298.15 K, x1 = 0.6877 | 795.16 ± 0.9 | 0.5047 ± 0.014
298.15 K, x1 = 0.7906 | 814.74 ± 0.84 | 0.5331 ± 0.015
298.15 K, x1 = 0.8949 | 835.24 ± 0.77 | 0.5714 ± 0.016
298.15 K, x1 = 1 | 856.7 ± 0.7 | 0.6162 ± 0.017
303.15 K, x1 = 0.0948 | 690.05 ± 1.2 | 0.382 ± 0.012
303.15 K, x1 = 0.1911 | 705.12 ± 1.2 | 0.3912 ± 0.012
303.15 K, x1 = 0.288 | 720.75 ± 1.1 | 0.4019 ± 0.012
303.15 K, x1 = 0.3865 | 737.2 ± 1.1 | 0.4154 ± 0.013
303.15 K, x1 = 0.4856 | 754.24 ± 1 | 0.4304 ± 0.013
303.15 K, x1 = 0.5861 | 772.19 ± 0.97 | 0.4496 ± 0.013
303.15 K, x1 = 0.6877 | 790.83 ± 0.91 | 0.4716 ± 0.014
303.15 K, x1 = 0.7906 | 810.42 ± 0.85 | 0.4979 ± 0.014
303.15 K, x1 = 0.8949 | 830.91 ± 0.78 | 0.5308 ± 0.015
303.15 K, x1 = 1 | 852.35 ± 0.72 | 0.5715 ± 0.015
313.15 K, x1 = 0.0948 | 681.45 ± 1.3 | 0.344 ± 0.011
313.15 K, x1 = 0.1911 | 696.52 ± 1.2 | 0.3523 ± 0.011
313.15 K, x1 = 0.288 | 712.12 ± 1.2 | 0.3623 ± 0.012
313.15 K, x1 = 0.3865 | 728.57 ± 1.1 | 0.374 ± 0.012
313.15 K, x1 = 0.4856 | 745.57 ± 1.1 | 0.3865 ± 0.012
313.15 K, x1 = 0.5861 | 763.52 ± 1 | 0.4034 ± 0.012
313.15 K, x1 = 0.6877 | 782.15 ± 0.94 | 0.4234 ± 0.013
313.15 K, x1 = 0.7906 | 801.71 ± 0.88 | 0.444 ± 0.013
313.15 K, x1 = 0.8949 | 822.21 ± 0.81 | 0.4729 ± 0.014
313.15 K, x1 = 1 | 843.64 ± 0.74 | 0.508 ± 0.014
323.15 K, x1 = 0.0948 | 672.73 ± 1.3 | 0.3136 ± 0.011
323.15 K, x1 = 0.1911 | 687.79 ± 1.2 | 0.3211 ± 0.011
323.15 K, x1 = 0.288 | 703.38 ± 1.2 | 0.3304 ± 0.011
323.15 K, x1 = 0.3865 | 719.83 ± 1.1 | 0.3408 ± 0.011
323.15 K, x1 = 0.4856 | 736.82 ± 1.1 | 0.3529 ± 0.011
323.15 K, x1 = 0.5861 | 754.77 ± 1 | 0.3683 ± 0.012
323.15 K, x1 = 0.6877 | 773.41 ± 0.97 | 0.3835 ± 0.012
323.15 K, x1 = 0.7906 | 792.97 ± 0.9 | 0.4041 ± 0.012
323.15 K, x1 = 0.8949 | 813.45 ± 0.84 | 0.4285 ± 0.013
323.15 K, x1 = 1 | 834.9 ± 0.77 | 0.4599 ± 0.013
333.15 K, x1 = 0.0948 | 663.88 ± 1.3 | 0.2848 ± 0.01
333.15 K, x1 = 0.1911 | 678.95 ± 1.3 | 0.2922 ± 0.01
333.15 K, x1 = 0.288 | 694.52 ± 1.2 | 0.2997 ± 0.011
333.15 K, x1 = 0.3865 | 710.98 ± 1.2 | 0.3097 ± 0.011
333.15 K, x1 = 0.4856 | 727.97 ± 1.1 | 0.3201 ± 0.011
333.15 K, x1 = 0.5861 | 745.92 ± 1.1 | 0.3345 ± 0.011
333.15 K, x1 = 0.6877 | 764.57 ± 0.99 | 0.3537 ± 0.011
333.15 K, x1 = 0.7906 | 784.15 ± 0.93 | 0.3712 ± 0.012
333.15 K, x1 = 0.8949 | 804.64 ± 0.87 | 0.3973 ± 0.012
333.15 K, x1 = 1 | 826.09 ± 0.8 | 0.4298 ± 0.013
343.15 K, x1 = 0.0948 | 654.83 ± 1.3 | 0.2612 ± 0.01
343.15 K, x1 = 0.1911 | 669.89 ± 1.3 | 0.2658 ± 0.01
343.15 K, x1 = 0.288 | 685.48 ± 1.2 | 0.273 ± 0.01
343.15 K, x1 = 0.3865 | 701.94 ± 1.2 | 0.2818 ± 0.01
343.15 K, x1 = 0.4856 | 718.94 ± 1.1 | 0.2915 ± 0.01
343.15 K, x1 = 0.5861 | 736.91 ± 1.1 | 0.303 ± 0.011
343.15 K, x1 = 0.6877 | 755.57 ± 1 | 0.3166 ± 0.011
343.15 K, x1 = 0.7906 | 775.17 ± 0.96 | 0.3317 ± 0.011
343.15 K, x1 = 0.8949 | 795.69 ± 0.89 | 0.3498 ± 0.011
343.15 K, x1 = 1 | 817.17 ± 0.83 | 0.3783 ± 0.012
